{"source": "ChEMBL document CHEMBL1122344", "about": "“Pyridazinones. 2. Synthesis and antisecretory and antiulcer activities of thiourea and 2-cyanoguanidine derivatives” (1983)", "assay_type_in_all_cases": "functional", "key": {"[1]": {"tested_on": "Rattus norvegicus", "test": "Gastric antisecretory activity at the dose of 100 mg/kg in pylorus lygated rats"}, "[2]": {"organism": "Rattus norvegicus", "test": "Dose required to inhibit gastric secretory activity in pylorus lygated rats", "conditions": "Stomach"}, "[3]": {"organism": "Rattus norvegicus", "test": "Dose required to inhibit ulcer induced by stress in rats"}}}
{"smiles": "CN(C)/C(=N/CCCCn1nc(-c2ccccc2)ccc1=O)NC#N", "values": [{"measurement": "inhibition in vivo at 100 mg/kg", "setting": "[1]", "result": 80.7, "unit": "%"}, {"measurement": "ED50", "setting": "[2]", "result": 30.3, "unit": "mg/kg"}, {"measurement": "ED50", "setting": "[3]", "result": 52.9, "unit": "mg/kg"}]}
{"smiles": "CC/N=C(/NC#N)NCCCCn1nc(-c2ccccc2)ccc1=O", "values": [{"measurement": "inhibition in vivo at 100 mg/kg", "setting": "[1]", "result": 58.8, "unit": "%"}, {"measurement": "ED50", "setting": "[2]", "result": 92, "unit": "mg/kg"}, {"measurement": "ED50", "setting": "[3]", "result": 60.7, "unit": "mg/kg"}]}
{"smiles": "C/N=C(/NC#N)NCCCCn1nc(N2CCN(C)CC2)ccc1=O", "values": [{"measurement": "inhibition in vivo at 100 mg/kg", "setting": "[1]", "result": 7.9, "unit": "%"}]}
{"smiles": "C/N=C(/NC#N)N(C)CCCCn1nc(-c2ccccc2)ccc1=O", "values": [{"measurement": "inhibition in vivo at 100 mg/kg", "setting": "[1]", "result": 27, "unit": "%"}, {"measurement": "ED50", "setting": "[2]", "result": "> 100", "unit": "mg/kg"}]}
{"smiles": "O=c1ccc(-c2ccccc2)nn1CCCCNC(=S)NCc1ccccc1", "values": [{"measurement": "inhibition in vivo at 100 mg/kg", "setting": "[1]", "result": 5.4, "unit": "%"}]}
{"smiles": "C/N=C(/NC#N)NCCCn1nc(-c2ccccc2)cc(C)c1=O", "values": [{"measurement": "inhibition in vivo at 100 mg/kg", "setting": "[1]", "result": 42.8, "unit": "%"}, {"measurement": "ED50", "setting": "[2]", "result": "> 100", "unit": "mg/kg"}]}
{"smiles": "CCC/N=C(/NC#N)NCCCn1nc(C)ccc1=O", "values": [{"measurement": "inhibition in vivo at 100 mg/kg", "setting": "[1]", "result": 17.5, "unit": "%"}]}
{"smiles": "O=c1ccc(-c2ccccc2)nn1CCCCNC(=S)Nc1ccccc1", "values": [{"measurement": "inhibition in vivo at 100 mg/kg", "setting": "[1]", "result": 38.4, "unit": "%"}, {"measurement": "ED50", "setting": "[2]", "result": "> 100", "unit": "mg/kg"}, {"measurement": "ED50", "setting": "[3]", "result": "> 100", "unit": "mg/kg"}]}
{"smiles": "CC(C)C/N=C(\\S)NCCCCn1nc(-c2ccccc2)ccc1=O", "values": [{"measurement": "inhibition in vivo at 100 mg/kg", "setting": "[1]", "result": 35.8, "unit": "%"}, {"measurement": "ED50", "setting": "[2]", "result": "> 100", "unit": "mg/kg"}]}
{"smiles": "CC/N=C(/NC#N)NCCCn1nc(-c2ccccc2)ccc1=O", "values": [{"measurement": "inhibition in vivo at 100 mg/kg", "setting": "[1]", "result": 62.9, "unit": "%"}, {"measurement": "ED50", "setting": "[2]", "result": 78.3, "unit": "mg/kg"}, {"measurement": "ED50", "setting": "[3]", "result": 88.5, "unit": "mg/kg"}]}
{"smiles": "C/N=C(/NC#N)NCCCCn1nc(-c2ccccc2)c(C)cc1=O", "values": [{"measurement": "inhibition in vivo at 100 mg/kg", "setting": "[1]", "result": 46.4, "unit": "%"}, {"measurement": "ED50", "setting": "[2]", "result": "> 100", "unit": "mg/kg"}]}
{"smiles": "CC/N=C(\\S)NCCCCCn1nc(-c2ccccc2)ccc1=O", "values": [{"measurement": "inhibition in vivo at 100 mg/kg", "setting": "[1]", "result": 66.4, "unit": "%"}, {"measurement": "ED50", "setting": "[2]", "result": 51.8, "unit": "mg/kg"}]}
{"smiles": "C/N=C(\\S)N(C)CCCCn1nc(-c2ccccc2)ccc1=O", "values": [{"measurement": "inhibition in vivo at 100 mg/kg", "setting": "[1]", "result": 17.5, "unit": "%"}]}
{"smiles": "C/N=C(/NC#N)NCCCCn1nc(N(C)C)ccc1=O", "values": [{"measurement": "inhibition in vivo at 100 mg/kg", "setting": "[1]", "result": 26.3, "unit": "%"}, {"measurement": "ED50", "setting": "[2]", "result": "> 100", "unit": "mg/kg"}]}
{"smiles": "CCC/N=C(/NC#N)NCCCn1nc(-c2ccccc2)ccc1=O", "values": [{"measurement": "inhibition in vivo at 100 mg/kg", "setting": "[1]", "result": 52.9, "unit": "%"}, {"measurement": "ED50", "setting": "[2]", "result": 100, "unit": "mg/kg"}]}
{"smiles": "C/N=C(\\NC#N)NCCCCn1nc(-c2ccccc2)ccc1=O", "values": [{"measurement": "inhibition in vivo at 100 mg/kg", "setting": "[1]", "result": 79, "unit": "%"}]}
{"smiles": "CN/C(=N/CCCCn1nc(-c2ccc(OC)cc2)ccc1=O)NC#N", "values": [{"measurement": "inhibition in vivo at 100 mg/kg", "setting": "[1]", "result": 48.5, "unit": "%"}, {"measurement": "ED50", "setting": "[2]", "result": "> 100", "unit": "mg/kg"}]}
{"smiles": "O=c1ccc(-c2ccccc2)nn1CCNC(=S)Nc1ccccc1", "values": [{"measurement": "inhibition in vivo at 100 mg/kg", "setting": "[1]", "result": -3.4, "unit": "%"}]}
{"smiles": "N/C(S)=N/CCCCn1nc(-c2ccccc2)ccc1=O", "values": [{"measurement": "inhibition in vivo at 100 mg/kg", "setting": "[1]", "result": 72, "unit": "%"}, {"measurement": "ED50", "setting": "[2]", "result": 36.3, "unit": "mg/kg"}]}
{"smiles": "C/N=C(\\S)NCCCCCn1nc(-c2ccccc2)ccc1=O", "values": [{"measurement": "inhibition in vivo at 100 mg/kg", "setting": "[1]", "result": 68.9, "unit": "%"}, {"measurement": "ED50", "setting": "[2]", "result": 35.3, "unit": "mg/kg"}, {"measurement": "ED50", "setting": "[3]", "result": 42.1, "unit": "mg/kg"}]}
{"smiles": "C/N=C(\\S)NCCn1nc(-c2ccccc2)ccc1=O", "values": [{"measurement": "inhibition in vivo at 100 mg/kg", "setting": "[1]", "result": 23.3, "unit": "%"}, {"measurement": "ED50", "setting": "[3]", "result": "> 100", "unit": "mg/kg"}]}
{"smiles": "CN(C)/C(=N/CCCCCn1nc(-c2ccccc2)ccc1=O)NC#N", "values": [{"measurement": "inhibition in vivo at 100 mg/kg", "setting": "[1]", "result": 63.9, "unit": "%"}, {"measurement": "ED50", "setting": "[2]", "result": 81.5, "unit": "mg/kg"}, {"measurement": "ED50", "setting": "[3]", "result": 53.1, "unit": "mg/kg"}]}
{"smiles": "C/N=C(/NC#N)NCCCn1nc(C)ccc1=O", "values": [{"measurement": "inhibition in vivo at 100 mg/kg", "setting": "[1]", "result": 6.8, "unit": "%"}]}
{"smiles": "CC/N=C(\\S)NCCn1nc(-c2ccccc2)ccc1=O", "values": [{"measurement": "inhibition in vivo at 100 mg/kg", "setting": "[1]", "result": 8.1, "unit": "%"}]}
{"smiles": "CC/N=C(/NC#N)NCCCCCn1nc(-c2ccccc2)ccc1=O", "values": [{"measurement": "inhibition in vivo at 100 mg/kg", "setting": "[1]", "result": 48.2, "unit": "%"}, {"measurement": "ED50", "setting": "[2]", "result": 100, "unit": "mg/kg"}, {"measurement": "ED50", "setting": "[3]", "result": 60.3, "unit": "mg/kg"}]}
{"smiles": "C/N=C(/NC#N)NCCCCCn1nc(-c2ccccc2)cc(C)c1=O", "values": [{"measurement": "inhibition in vivo at 100 mg/kg", "setting": "[1]", "result": 33.8, "unit": "%"}, {"measurement": "ED50", "setting": "[2]", "result": "> 100", "unit": "mg/kg"}]}
{"smiles": "C#CCN/C(=N/CCCCn1nc(-c2ccccc2)ccc1=O)NC#N", "values": [{"measurement": "inhibition in vivo at 100 mg/kg", "setting": "[1]", "result": -12.9, "unit": "%"}]}
{"smiles": "C/N=C(\\S)NCCCn1nc(-c2ccccc2)ccc1=O", "values": [{"measurement": "inhibition in vivo at 100 mg/kg", "setting": "[1]", "result": 38.9, "unit": "%"}, {"measurement": "ED50", "setting": "[2]", "result": "> 100", "unit": "mg/kg"}, {"measurement": "ED50", "setting": "[3]", "result": 58, "unit": "mg/kg"}]}
{"smiles": "C/N=C(/NC#N)NCCCCn1nc(-c2ccc(Cl)cc2)ccc1=O", "values": [{"measurement": "inhibition in vivo at 100 mg/kg", "setting": "[1]", "result": 51, "unit": "%"}, {"measurement": "ED50", "setting": "[2]", "result": 100, "unit": "mg/kg"}]}
{"smiles": "N#CN/C(=N\\CCCCn1nc(-c2ccccc2)ccc1=O)NCCc1ccccc1", "values": [{"measurement": "inhibition in vivo at 100 mg/kg", "setting": "[1]", "result": 0.3, "unit": "%"}]}
{"smiles": "N#CNC(=N)NCCCn1nc(-c2ccccc2)ccc1=O", "values": [{"measurement": "inhibition in vivo at 100 mg/kg", "setting": "[1]", "result": 33.3, "unit": "%"}, {"measurement": "ED50", "setting": "[2]", "result": "> 100", "unit": "mg/kg"}]}
{"smiles": "CC/N=C(/NC#N)NCCCn1nc(-c2ccccc2)cc(C)c1=O", "values": [{"measurement": "inhibition in vivo at 100 mg/kg", "setting": "[1]", "result": 23.5, "unit": "%"}]}
{"smiles": "O=c1ccc(-c2ccccc2)nn1CCCC/N=C(\\S)Nc1ccc(F)cc1", "values": [{"measurement": "inhibition in vivo at 100 mg/kg", "setting": "[1]", "result": 45.6, "unit": "%"}, {"measurement": "ED50", "setting": "[2]", "result": "> 100", "unit": "mg/kg"}]}
{"smiles": "C/N=C(/NC#N)NCCCCn1nc(-c2ccccc2)cc(C)c1=O", "values": [{"measurement": "inhibition in vivo at 100 mg/kg", "setting": "[1]", "result": 68.6, "unit": "%"}, {"measurement": "ED50", "setting": "[2]", "result": 60.8, "unit": "mg/kg"}]}
{"smiles": "C/N=C(\\S)NCCCCn1nc(-c2ccccc2)ccc1=O", "values": [{"measurement": "inhibition in vivo at 100 mg/kg", "setting": "[1]", "result": 87.1, "unit": "%"}, {"measurement": "ED50", "setting": "[2]", "result": 28.9, "unit": "mg/kg"}, {"measurement": "ED50", "setting": "[3]", "result": 17.3, "unit": "mg/kg"}]}
{"smiles": "O=c1ccc(-c2ccccc2)nn1CCCCNC(=S)Nc1cccc2ccccc12", "values": [{"measurement": "inhibition in vivo at 100 mg/kg", "setting": "[1]", "result": 42.3, "unit": "%"}, {"measurement": "ED50", "setting": "[2]", "result": "> 100", "unit": "mg/kg"}]}
{"smiles": "CC/N=C(/NC#N)NCCCCn1nc(-c2ccccc2)c(C)cc1=O", "values": [{"measurement": "inhibition in vivo at 100 mg/kg", "setting": "[1]", "result": 38.8, "unit": "%"}, {"measurement": "ED50", "setting": "[2]", "result": "> 100", "unit": "mg/kg"}]}
{"smiles": "N#CNC(=N)NCCn1nc(-c2ccccc2)ccc1=O", "values": [{"measurement": "inhibition in vivo at 100 mg/kg", "setting": "[1]", "result": 18.5, "unit": "%"}]}
{"smiles": "C/N=C(/NC#N)NCCCCn1nc(N2CCOCC2)ccc1=O", "values": [{"measurement": "inhibition in vivo at 100 mg/kg", "setting": "[1]", "result": -10.2, "unit": "%"}]}
{"smiles": "C#CCN/C(=N/CCCn1nc(-c2ccccc2)ccc1=O)NC#N", "values": [{"measurement": "inhibition in vivo at 100 mg/kg", "setting": "[1]", "result": -11.8, "unit": "%"}]}
{"smiles": "N#CNC(=N)NCCCCCn1nc(-c2ccccc2)ccc1=O", "values": [{"measurement": "inhibition in vivo at 100 mg/kg", "setting": "[1]", "result": 31, "unit": "%"}, {"measurement": "ED50", "setting": "[2]", "result": "> 100", "unit": "mg/kg"}]}
{"smiles": "C/N=C(/NC#N)NCCCCCCn1nc(-c2ccccc2)ccc1=O", "values": [{"measurement": "inhibition in vivo at 100 mg/kg", "setting": "[1]", "result": 31.7, "unit": "%"}, {"measurement": "ED50", "setting": "[2]", "result": "> 100", "unit": "mg/kg"}, {"measurement": "ED50", "setting": "[3]", "result": "> 100", "unit": "mg/kg"}]}
